Values quoted from earlier work in patent US20050106263A1, “Green tea, multivitamin, mineral and herb based hair and male facial skin formulas” (priority 2003, published 2005).

Key:
[1] = in vivo
hair loss = conditions: comparison drug, general statement

Row | Structure (SMILES) | oral bioavailability [1] | effect on front hairline (hair loss) | persistence of effect after use is stopped (hair loss)
1 | O=C(O[C@@H]1Cc2c(O)cc(O)cc2O[C@@H]1c1cc(O)c(O)c(O)c1)c1cc(O)c(O)c(O)c1 [EGCG, epigallocatchin-3-gallate] | low oral bioavailability | – | –
2 | Nc1cc(N2CCCCC2)nc(N)[n+]1[O-] [Rogaine] | – | does not work well on the front hairline | must be continually used or its effects will not only cease but will reverse
